What follows are molecules tested on MDA-MB-231 cells (assay: Cell proliferation experiment, MDA-MB-231). Conditions: Homo sapiens, MDA-MB-231, MDA-MB-231 cells; read-out: Inhibitory activity IC50 on MDA-MB-231.
Assay type: cell-based, human
Procedure, shortened: (§1)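 Cells were passaged at least twice, harvested in log phase and plated in 96 wells. Compound in complete medium was added at 5-fold gradient concentrations, duplicates per concentration. After 72 h culture, Alamar blue fluorescence was measured and IC50 fitted.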

SMILES	IC50
CNC(=O)c1ncccc1Nc1nc(Nc2ccc(N3CCN(C(=O)N[C@H]4CC[C@@H](NCCOCCC#Cc5ccc6c(c5)CN(C5CCC(=O)NC5=O)C6=O)CC4)CC3)cc2)ncc1C#N (stereo partly drawn) [UB-181117]	> 1000 nM
CNC(=O)c1ncccc1Nc1nc(Nc2ccc(N3CCN(C(=O)N[C@H]4CC[C@H](NCCOCCC#Cc5cccc6c5CN(C5CCC(=O)NC5=O)C6=O)CC4)CC3)cc2)ncc1C#N (stereo partly drawn) [UB-181124]	> 1000 nM
CNC(=O)c1ccccc1Nc1nc(Nc2ccc(N3CCN(C(=O)NC4CCC(NCCOCCC#Cc5ccc6c(c5)CN(C5CCC(=O)NC5=O)C6=O)CC4)CC3)cc2)ncc1C#N (stereo not drawn) [UB-181125]	> 1000 nM
CNC(=O)c1ncccc1Nc1nc(Nc2ccc(N3CCN(C(=O)NC4CCC(NCCOCCC#Cc5cccc6c5CN(C5CCC(=O)NC5=O)C6=O)CC4)CC3)cc2)ncc1Cl (stereo not drawn) [UB-181128]	> 1000 nM
CNC(=O)c1ncccc1Nc1nc(Nc2ccc(N3CCN(C(=O)NC4CCC(NCCOCCC#Cc5ccc6c(c5)CN(C5CCC(=O)NC5=O)C6=O)CC4)CC3)cc2)ncc1Cl (stereo not drawn) [UB-181129]	> 1000 nM
N#Cc1ccccc1Nc1nc(Nc2ccc(N3CCN(C(=O)N[C@H]4CC[C@@H](NCCOCCC#Cc5cccc6c5CN(C5CCC(=O)NC5=O)C6=O)CC4)CC3)cc2)ncc1Cl (stereo partly drawn) [UB-181132]	100 to 1000 nM
N#Cc1ccccc1Nc1nc(Nc2ccc(N3CCN(C(=O)N[C@H]4CC[C@@H](NCCOCCC#Cc5ccc6c(c5)CN(C5CCC(=O)NC5=O)C6=O)CC4)CC3)cc2)ncc1Cl (stereo partly drawn) [UB-181133]	> 1000 nM
N#Cc1ccccc1Nc1nc(Nc2ccc(C3CCN(C(=O)N[C@H]4CC[C@@H](NCCOCCC#Cc5cccc6c5CN(C5CCC(=O)NC5=O)C6=O)CC4)CC3)cc2)ncc1Cl (stereo partly drawn) [UB-181134]	> 1000 nM
N#Cc1ccccc1Nc1nc(Nc2ccc(C3CCN(C(=O)N[C@H]4CC[C@@H](NCCOCCC#Cc5ccc6c(c5)CN(C5CCC(=O)NC5=O)C6=O)CC4)CC3)cc2)ncc1Cl (stereo partly drawn) [UB-181135]	> 1000 nM

Same assay, conditions: MDA-MB-231 cells; read-out: Inhibitory activity IC50 on MDA-MB-231

SMILES	IC50
CNC(=O)c1ccccc1Nc1nc(Nc2ccc(N3CCN(C(=O)N[C@H]4CC[C@@H](NCCOCCC#Cc5cccc6c5CN(C5CCC(=O)NC5=O)C6=O)CC4)CC3)cc2)ncc1Cl (stereo partly drawn) [UB-181119]	100 to 1000 nM
CNC(=O)c1ccccc1Nc1nc(Nc2ccc(N3CCN(C(=O)N[C@H]4CC[C@@H](NCCOCCC#Cc5cccc6c5CN(C5CCC(=O)NC5=O)C6=O)CC4)CC3)cc2)ncc1Cl (stereo partly drawn) [UB-181120]	100 to 1000 nM
CNC(=O)c1ccccc1Nc1nc(Nc2ccc(N3CCN(C(=O)N[C@H]4CC[C@@H](NCCOCCC#Cc5ccc6c(c5)CN(C5CCC(=O)NC5=O)C6=O)CC4)CC3)cc2)ncc1C#N (stereo partly drawn) [UB-181123]	100 to 1000 nM

These molecules were tested on NCIH82 cells (assay: Cell proliferation experiment, NCI-H82). Conditions: Homo sapiens, NCI-H82, NCI-H82 cells; read-out: Inhibitory activity IC50 on NCI-H82.
Assay type: cell-based, human
Procedure, shortened: as §1

SMILES	IC50
CNC(=O)c1ncccc1Nc1nc(Nc2ccc(N3CCN(C(=O)N[C@H]4CC[C@@H](NCCOCCC#Cc5ccc6c(c5)CN(C5CCC(=O)NC5=O)C6=O)CC4)CC3)cc2)ncc1C#N (stereo partly drawn) [UB-181117]	> 1000 nM
CNC(=O)c1ncccc1Nc1nc(Nc2ccc(N3CCN(C(=O)N[C@H]4CC[C@H](NCCOCCC#Cc5cccc6c5CN(C5CCC(=O)NC5=O)C6=O)CC4)CC3)cc2)ncc1C#N (stereo partly drawn) [UB-181124]	> 1000 nM
CNC(=O)c1ccccc1Nc1nc(Nc2ccc(N3CCN(C(=O)NC4CCC(NCCOCCC#Cc5ccc6c(c5)CN(C5CCC(=O)NC5=O)C6=O)CC4)CC3)cc2)ncc1C#N (stereo not drawn) [UB-181125]	> 1000 nM
CNC(=O)c1ncccc1Nc1nc(Nc2ccc(N3CCN(C(=O)NC4CCC(NCCOCCC#Cc5cccc6c5CN(C5CCC(=O)NC5=O)C6=O)CC4)CC3)cc2)ncc1Cl (stereo not drawn) [UB-181128]	> 1000 nM
CNC(=O)c1ncccc1Nc1nc(Nc2ccc(N3CCN(C(=O)NC4CCC(NCCOCCC#Cc5ccc6c(c5)CN(C5CCC(=O)NC5=O)C6=O)CC4)CC3)cc2)ncc1Cl (stereo not drawn) [UB-181129]	100 to 1000 nM
N#Cc1ccccc1Nc1nc(Nc2ccc(N3CCN(C(=O)N[C@H]4CC[C@@H](NCCOCCC#Cc5cccc6c5CN(C5CCC(=O)NC5=O)C6=O)CC4)CC3)cc2)ncc1Cl (stereo partly drawn) [UB-181132]	100 to 1000 nM
N#Cc1ccccc1Nc1nc(Nc2ccc(N3CCN(C(=O)N[C@H]4CC[C@@H](NCCOCCC#Cc5ccc6c(c5)CN(C5CCC(=O)NC5=O)C6=O)CC4)CC3)cc2)ncc1Cl (stereo partly drawn) [UB-181133]	100 to 1000 nM
N#Cc1ccccc1Nc1nc(Nc2ccc(C3CCN(C(=O)N[C@H]4CC[C@@H](NCCOCCC#Cc5cccc6c5CN(C5CCC(=O)NC5=O)C6=O)CC4)CC3)cc2)ncc1Cl (stereo partly drawn) [UB-181134]	> 1000 nM
N#Cc1ccccc1Nc1nc(Nc2ccc(C3CCN(C(=O)N[C@H]4CC[C@@H](NCCOCCC#Cc5ccc6c(c5)CN(C5CCC(=O)NC5=O)C6=O)CC4)CC3)cc2)ncc1Cl (stereo partly drawn) [UB-181135]	> 1000 nM

Same assay, conditions: NCI-H82 cells; read-out: Inhibitory activity IC50 on NCI-H82

SMILES	IC50
CNC(=O)c1ccccc1Nc1nc(Nc2ccc(N3CCN(C(=O)N[C@H]4CC[C@@H](NCCOCCC#Cc5cccc6c5CN(C5CCC(=O)NC5=O)C6=O)CC4)CC3)cc2)ncc1Cl (stereo partly drawn) [UB-181119]	100 to 1000 nM
CNC(=O)c1ccccc1Nc1nc(Nc2ccc(N3CCN(C(=O)N[C@H]4CC[C@@H](NCCOCCC#Cc5cccc6c5CN(C5CCC(=O)NC5=O)C6=O)CC4)CC3)cc2)ncc1Cl (stereo partly drawn) [UB-181120]	100 to 1000 nM
CNC(=O)c1ccccc1Nc1nc(Nc2ccc(N3CCN(C(=O)N[C@H]4CC[C@@H](NCCOCCC#Cc5ccc6c(c5)CN(C5CCC(=O)NC5=O)C6=O)CC4)CC3)cc2)ncc1C#N (stereo partly drawn) [UB-181123]	100 to 1000 nM

What follows are molecules tested on PC-3 (assay: Cell proliferation experiment, PC-3). Conditions: Homo sapiens, PC-3, PC-3 cells; read-out: Inhibitory activity IC50 on PC-3.
Assay type: cell-based, human
Procedure, shortened: as §1

SMILES	IC50
CNC(=O)c1ncccc1Nc1nc(Nc2ccc(N3CCN(C(=O)N[C@H]4CC[C@@H](NCCOCCC#Cc5ccc6c(c5)CN(C5CCC(=O)NC5=O)C6=O)CC4)CC3)cc2)ncc1C#N (stereo partly drawn) [UB-181117]	> 1000 nM
CNC(=O)c1ncccc1Nc1nc(Nc2ccc(N3CCN(C(=O)N[C@H]4CC[C@H](NCCOCCC#Cc5cccc6c5CN(C5CCC(=O)NC5=O)C6=O)CC4)CC3)cc2)ncc1C#N (stereo partly drawn) [UB-181124]	10 to 100 nM
CNC(=O)c1ccccc1Nc1nc(Nc2ccc(N3CCN(C(=O)NC4CCC(NCCOCCC#Cc5ccc6c(c5)CN(C5CCC(=O)NC5=O)C6=O)CC4)CC3)cc2)ncc1C#N (stereo not drawn) [UB-181125]	100 to 1000 nM
CNC(=O)c1ncccc1Nc1nc(Nc2ccc(N3CCN(C(=O)NC4CCC(NCCOCCC#Cc5cccc6c5CN(C5CCC(=O)NC5=O)C6=O)CC4)CC3)cc2)ncc1Cl (stereo not drawn) [UB-181128]	> 1000 nM
CNC(=O)c1ncccc1Nc1nc(Nc2ccc(N3CCN(C(=O)NC4CCC(NCCOCCC#Cc5ccc6c(c5)CN(C5CCC(=O)NC5=O)C6=O)CC4)CC3)cc2)ncc1Cl (stereo not drawn) [UB-181129]	> 1000 nM
N#Cc1ccccc1Nc1nc(Nc2ccc(N3CCN(C(=O)N[C@H]4CC[C@@H](NCCOCCC#Cc5cccc6c5CN(C5CCC(=O)NC5=O)C6=O)CC4)CC3)cc2)ncc1Cl (stereo partly drawn) [UB-181132]	100 to 1000 nM
N#Cc1ccccc1Nc1nc(Nc2ccc(N3CCN(C(=O)N[C@H]4CC[C@@H](NCCOCCC#Cc5ccc6c(c5)CN(C5CCC(=O)NC5=O)C6=O)CC4)CC3)cc2)ncc1Cl (stereo partly drawn) [UB-181133]	100 to 1000 nM
N#Cc1ccccc1Nc1nc(Nc2ccc(C3CCN(C(=O)N[C@H]4CC[C@@H](NCCOCCC#Cc5cccc6c5CN(C5CCC(=O)NC5=O)C6=O)CC4)CC3)cc2)ncc1Cl (stereo partly drawn) [UB-181134]	> 1000 nM
N#Cc1ccccc1Nc1nc(Nc2ccc(C3CCN(C(=O)N[C@H]4CC[C@@H](NCCOCCC#Cc5ccc6c(c5)CN(C5CCC(=O)NC5=O)C6=O)CC4)CC3)cc2)ncc1Cl (stereo partly drawn) [UB-181135]	> 1000 nM

Same assay, conditions: PC-3 cells; read-out: Inhibitory activity IC50 on PC-3

SMILES	IC50
CNC(=O)c1ccccc1Nc1nc(Nc2ccc(N3CCN(C(=O)N[C@H]4CC[C@@H](NCCOCCC#Cc5cccc6c5CN(C5CCC(=O)NC5=O)C6=O)CC4)CC3)cc2)ncc1Cl (stereo partly drawn) [UB-181119]	10 to 100 nM
CNC(=O)c1ccccc1Nc1nc(Nc2ccc(N3CCN(C(=O)N[C@H]4CC[C@@H](NCCOCCC#Cc5cccc6c5CN(C5CCC(=O)NC5=O)C6=O)CC4)CC3)cc2)ncc1Cl (stereo partly drawn) [UB-181120]	10 to 100 nM
CNC(=O)c1ccccc1Nc1nc(Nc2ccc(N3CCN(C(=O)N[C@H]4CC[C@@H](NCCOCCC#Cc5ccc6c(c5)CN(C5CCC(=O)NC5=O)C6=O)CC4)CC3)cc2)ncc1C#N (stereo partly drawn) [UB-181123]	10 to 100 nM

These molecules were tested on MV4;11 cells (assay: Cell proliferation experiment (Alamar blue, 72 h), MV4;11). Conditions: Homo sapiens, MV4-11, MV4;11 cells; read-out: Inhibitory activity IC50 on MV4;11.
Assay type: cell-based, human
Procedure, shortened: as §1

SMILES	IC50
CNC(=O)c1ncccc1Nc1nc(Nc2ccc(N3CCN(C(=O)N[C@H]4CC[C@@H](NCCOCCC#Cc5ccc6c(c5)CN(C5CCC(=O)NC5=O)C6=O)CC4)CC3)cc2)ncc1C#N (stereo partly drawn) [UB-181117]	10 to 100 nM
CNC(=O)c1ncccc1Nc1nc(Nc2ccc(N3CCN(C(=O)N[C@H]4CC[C@H](NCCOCCC#Cc5cccc6c5CN(C5CCC(=O)NC5=O)C6=O)CC4)CC3)cc2)ncc1C#N (stereo partly drawn) [UB-181124]	10 to 100 nM
CNC(=O)c1ccccc1Nc1nc(Nc2ccc(N3CCN(C(=O)NC4CCC(NCCOCCC#Cc5ccc6c(c5)CN(C5CCC(=O)NC5=O)C6=O)CC4)CC3)cc2)ncc1C#N (stereo not drawn) [UB-181125]	10 to 100 nM
CNC(=O)c1ncccc1Nc1nc(Nc2ccc(N3CCN(C(=O)NC4CCC(NCCOCCC#Cc5cccc6c5CN(C5CCC(=O)NC5=O)C6=O)CC4)CC3)cc2)ncc1Cl (stereo not drawn) [UB-181128]	< 10 nM
CNC(=O)c1ncccc1Nc1nc(Nc2ccc(N3CCN(C(=O)NC4CCC(NCCOCCC#Cc5ccc6c(c5)CN(C5CCC(=O)NC5=O)C6=O)CC4)CC3)cc2)ncc1Cl (stereo not drawn) [UB-181129]	10 to 100 nM
N#Cc1ccccc1Nc1nc(Nc2ccc(N3CCN(C(=O)N[C@H]4CC[C@@H](NCCOCCC#Cc5cccc6c5CN(C5CCC(=O)NC5=O)C6=O)CC4)CC3)cc2)ncc1Cl (stereo partly drawn) [UB-181132]	< 10 nM
N#Cc1ccccc1Nc1nc(Nc2ccc(N3CCN(C(=O)N[C@H]4CC[C@@H](NCCOCCC#Cc5ccc6c(c5)CN(C5CCC(=O)NC5=O)C6=O)CC4)CC3)cc2)ncc1Cl (stereo partly drawn) [UB-181133]	10 to 100 nM
N#Cc1ccccc1Nc1nc(Nc2ccc(C3CCN(C(=O)N[C@H]4CC[C@@H](NCCOCCC#Cc5cccc6c5CN(C5CCC(=O)NC5=O)C6=O)CC4)CC3)cc2)ncc1Cl (stereo partly drawn) [UB-181134]	10 to 100 nM
N#Cc1ccccc1Nc1nc(Nc2ccc(C3CCN(C(=O)N[C@H]4CC[C@@H](NCCOCCC#Cc5ccc6c(c5)CN(C5CCC(=O)NC5=O)C6=O)CC4)CC3)cc2)ncc1Cl (stereo partly drawn) [UB-181135]	10 to 100 nM

Same assay, conditions: MV4;11 cells; read-out: Inhibitory activity IC50 on MV4;11

SMILES	IC50
CNC(=O)c1ccccc1Nc1nc(Nc2ccc(N3CCN(C(=O)N[C@H]4CC[C@@H](NCCOCCC#Cc5cccc6c5CN(C5CCC(=O)NC5=O)C6=O)CC4)CC3)cc2)ncc1Cl (stereo partly drawn) [UB-181119]	< 10 nM
CNC(=O)c1ccccc1Nc1nc(Nc2ccc(N3CCN(C(=O)N[C@H]4CC[C@@H](NCCOCCC#Cc5cccc6c5CN(C5CCC(=O)NC5=O)C6=O)CC4)CC3)cc2)ncc1Cl (stereo partly drawn) [UB-181120]	< 10 nM
CNC(=O)c1ccccc1Nc1nc(Nc2ccc(N3CCN(C(=O)N[C@H]4CC[C@@H](NCCOCCC#Cc5ccc6c(c5)CN(C5CCC(=O)NC5=O)C6=O)CC4)CC3)cc2)ncc1C#N (stereo partly drawn) [UB-181123]	< 10 nM
